Structures can show the parent of a compound that is named as a salt.
What was measured:
Assay type in all cases: functional, Artery
Rattus norvegicus [1] = experiment: Average change in mean arterial blood pressure (mmHg) observed at 4 hr after oral administration at a dose of 50 mg/kg in female Sprague-Dawley rats
Rattus norvegicus [2] = experiment: Average change in mean arterial blood pressure (mmHg) observed at 4 hr after oral administration at a dose of 14 mg/kg in female Sprague-Dawley rats
Rattus norvegicus [3] = experiment: Average change in mean arterial blood pressure (mmHg) observed at 4 hr after oral administration at a dose of 0.15 mg/kg in female Sprague-Dawley rats
Rattus norvegicus [4] = experiment: Average change in mean arterial blood pressure (mmHg) observed at 4 hr after oral administration at a dose of 5 mg/kg in female Sprague-Dawley rats

With CNc1cc(N)[n+](OS(=O)(=O)[O-])c(N)n1 the Delta blood pressure (Rattus norvegicus [1]) was -8 mmHg.
For Cc1cc(N2CCOCC2)nc(N)[n+]1OS(=O)(=O)[O-], the Delta blood pressure (Rattus norvegicus [2]) was -37 mmHg.
Molecule Cc1cc(N2CCCC2)nc(N)[n+]1OS(=O)(=O)[O-] has a Delta blood pressure (Rattus norvegicus [1]) of -39 mmHg.
Nc1cc(N2CCCCC2)nc(N)[n+]1OS(=O)(=O)[O-] [MINOXIDIL SULFATE] showed a Delta blood pressure (Rattus norvegicus [3]) of -16 mmHg.
With C=CCN(CC=C)c1nc(N)[n+](OS(=O)(=O)[O-])c(N)n1 the Delta blood pressure (Rattus norvegicus [4]) was -21 mmHg.

Source: ChEMBL document CHEMBL1122505, “Pyrimidine and triazine 3-oxide sulfates: a new family of vasodilators” (1983)
